The source of these data is patent US20230044787A1, “TRICYCLE DIHYDROIMIDAZOPYRIMIDONE DERIVATIVE, PREPARATION METHOD THEREOF, PHARMACEUTICAL COMPOSITION AND USE THEREOF” (priority 2019, published 2023).

This test deals with T1, Lp-PLA2 (Homo sapiens, UniProt Q13093).
T1 construct: aliquoted and thawed 40 μL of pooled human plasma was previously added; from tissue; host or cells: pooled human plasma
T1 sequence (Q13093 22-441): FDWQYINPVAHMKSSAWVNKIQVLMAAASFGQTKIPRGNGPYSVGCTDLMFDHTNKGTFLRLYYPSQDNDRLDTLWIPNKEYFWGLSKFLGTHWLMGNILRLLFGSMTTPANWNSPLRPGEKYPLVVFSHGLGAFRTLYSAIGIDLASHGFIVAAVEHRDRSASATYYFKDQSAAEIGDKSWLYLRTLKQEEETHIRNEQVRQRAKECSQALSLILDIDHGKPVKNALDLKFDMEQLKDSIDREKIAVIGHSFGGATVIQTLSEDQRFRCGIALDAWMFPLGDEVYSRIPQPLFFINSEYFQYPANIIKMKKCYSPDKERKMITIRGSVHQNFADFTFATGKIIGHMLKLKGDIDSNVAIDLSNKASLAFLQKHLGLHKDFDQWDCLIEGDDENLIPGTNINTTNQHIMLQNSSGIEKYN
Kind of test: Lipoprotein-associated phospholipase A2 (Lp-PLA2) human plasma assay (Thio-PAF assay). The class given is biochemical. The conditions noted are these: Lp-PLA2 human plasma assay (Thio-PAF), pooled human plasma, 30-min pre-incubation at room temperature.
By IC50 is commonly meant the concentration that inhibits the measured activity by half. `O=c1nc(OCc2ccc(Oc3cnc(C(F)(F)F)nc3)c(F)c2)cc2n1CC13CCC(CC1)N23` [Example 128, 3-((3-fluoro-4-((2-(trifluoromethyl)pyrimidin-5-yl)oxy)benzyl)oxy)-7,8-dihydro-1H,6H,9H-6,8a-ethanopyrrolo[1′,2′:3,4] imidazo[1,2-c]pyrimidin-1-one]: the IC50 came to 8.4 nM.
With `O=c1nc(OCc2ccc(Oc3ccc(C(F)(F)F)cc3)c(F)c2)cc2n1CC13CC(CN21)C3` [Example 129, 3-((3-fluoro-4-(4-(trifluoromethyl)phenoxy)benzyl)oxy)-7,8-dihydro-1H,6H,9H-7,8a-methanopyrrolo[1′,2′:3,4] imidazo[1,2-c]pyrimidin-1-one] the figure was 6.5 nM; with `O=c1nc(OCc2ccc(Oc3ccc(C(F)(F)F)cc3)c(F)c2)cc2n1CC13CCC(CC1)N23` [Example 130, 3-((3-fluoro-4-(4-(trifluoromethyl)phenoxy)benzyl)oxy)-7,8-dihydro-1H,6H,9H-6,8a-ethanopyrrolo[1′,2′:3,4] imidazo[1,2-c]pyrimidin-1-one], 4.8 nM; with `O=C1N(Cc2ccccc2)[C@@H]2CN3c4cc(OCc5cc(F)c(Oc6ccnc(C(F)(F)F)c6)c(F)c5)nc(=O)n4C[C@]13C2` [Example 131], 7.9 nM.
Consider `O=c1nc(OCCc2ccc(Oc3cccc(C(F)(F)F)c3)cc2)cc2n1C[C@]13CO[C@H](CN21)C3` [Example 132, (3S,11aR)-7-(4-(3-(trifluoromethyl)phenoxy)phenethoxy)-3,4-dihydro-1H,9H,11H-3,11a-methanopyrimido[6′,1′:2,3] imidazo[5,1-c][1,4]oxazin-9-one], for which the IC50 was 5.9 nM.
`O=c1nc(OCCc2ccc(Oc3cccc(C(F)(F)F)c3)cc2)cc2n1CC13CC(CN21)C3` [Example 133, 3-(4-(3-(trifluoromethyl)phenoxy)phenethoxy)-7,8-dihydro-1H,6H,9H-7,8a-methanopyrrolo[1′,2′:3,4] imidazo[1,2-c]pyrimidin-1-one]: the IC50 came to 36.6 nM.
For `O=c1nc(OCc2cc(F)c(Oc3ccccc3)c(F)c2)cc2n1C[C@]13CO[C@H](CN21)C3` [Example 135, (3S,11aR)-7-((3,5-difluoro-4-phenoxybenzyl)oxy)-3,4-dihydro-1H,9H,11H-3,11a-methanopyrimido[6′,1′:2,3] imidazo[5,1-c][1,4]oxazin-9-one], the IC50 came to 17.2 nM.
Regarding `O=c1nc(OCc2cc(F)c(Oc3ccc(F)c(F)c3)c(F)c2)cc2n1C[C@]13CO[C@H](CN21)C3` [Example 136], the IC50 came to 3.8 nM.
The result for `O=c1nc(OCc2cc(F)c(Oc3cccc(F)c3)c(F)c2)cc2n1C[C@]13CO[C@H](CN21)C3` [Example 137] reads 5.8 nM; that for `COCC12CN3c4cc(OCc5ccc(Oc6ccnc(C(F)(F)F)c6)c(F)c5)nc(=O)n4CC3(C1)C2` [Example 138, 3-((3-fluoro-4-((2-(trifluoromethyl)pyridin-4-yl)oxy)benzyl)oxy)-7-(methoxymethyl)-7,8-dihydro-1H,6H,9H-7,8a-methanopyrrolo[1′,2′:3,4] imidazo[1,2-c]pyrimidin-1-one], 2.4 nM; that for `O=c1nc(OCc2ccc(Oc3ccnc(C(F)(F)F)c3)c(F)c2)cc2n1CC13CC(C(F)F)(CN21)C3` [Example 139, 7-(difluoromethyl)-3-((3-fluoro-4-((2-(trifluoromethyl)pyridin-4-yl)oxy)benzyl)oxy)-7,8-dihydro-1H,6H,9H-7,8a-methanopyrrolo[1′,2′:3,4] imidazo[1,2-c]pyrimidin-1-one], 2.6 nM.
As for `COc1c(OCc2ccc(Oc3ccnc(C(F)F)c3)c(F)c2)nc(=O)n2c1N1CC3CC1(C3)C2` [Example 140, 3-((4-((2-(difluoromethyl)pyridin-4-yl)oxy)-3-fluorobenzyl)oxy)-4-methoxy-7,8-dihydro-1H,6H,9H-7,8a-methanopyrrolo[1′,2′:3,4] imidazo[1,2-c]pyrimidin-1-one], the IC50 turned out to be 3.9 nM.
